Structures can show the parent of a compound that is named as a salt.
How the values were obtained:
Type in all cases: cell-based
HCV replicon = HCV replicon antiviral evaluation assay
Protocol: (§1) The subgenomic HCV replicons of genotype 1a (H77 strain), 1b (Coni strain), and 2a (JFH-1 strain), which are Huh7 human hepatoma cell lines that contains an HCV replicon were used.
The HCV replicon antiviral evaluation assay examines the effects of compounds at six serial dilutions. Human interferon alpha-2b (rIFNα-2b) and/or Sofosbuvir were included in each run as a positive control compound.
(§2) Briefly, the replicon cells were plated at 5,000 cells/well into 96-well plates that were dedicated for the analysis of cell numbers (cytotoxicity) or antiviral activity. On the following day, samples were diluted with assay media and added to the appropriate wells. Cells were processed 72 hours later when the cells were still sub-confluent. For the luciferase endpoint assay, HCV replicon levels were assessed as replicon-derived Luc activity. The concentration of drug that reduces cell viability was assessed by the fluorometric CytoTox-1 cell proliferation assay (Promega), (expressed as cell numbers). For the qRT-PCR/TaqMan assay, total RNA was extracted from the replicon cells using RNeasy 96 kit (Qiagen) according to the manufacturer's protocol. Real-time RTPCR/TaqMan assays was performed to measure copy numbers of the replicon RNA and cellular ribosomal RNA.

HIV-1 isolate 89BZ_167 = assay: In vitro efficacy against HIV-1 in fresh PBMCs (reverse transcriptase activity in supernatant), isolate 89BZ_167
Protocol: (§3) Fresh human PBMCs, seronegative for HIV and HBV, were isolated from screened donors (Biological Specialty Corporation, Colmar, PA). Cells were pelleted/washed 2-3 times by low speed centrifugation and re-suspension in PBS to remove contaminating platelets. The Leukophoresed blood was then diluted 1:1 with Dulbecco's Phosphate Buffered Saline (DPBS) and layered over 15 mL of Ficoll (GE Healthcare #17-1440-02) in 50 mL centrifuge tube and then centrifuged for 30 minutes at 600×g. Banded PBMCs were gently aspirated from the resulting interface and subsequently washed 2× with PBS by low speed centrifugation. After the final wash, cells were enumerated by tryptan blue exclusion and re-suspended at 1×10^6 cells/mL in RPMI 1640 supplemented with 15% Fetal Bovine Serum (FBS), and 2 mM L-glutamine, 4 μg/mL Phytohemagglutinin (PHA, Sigma). The cells were allowed to incubate for 48-72 hours at 37° C. […] Pooling (mixing) of mononuclear cells from more than one donor was used to minimize the variability observed between individual donors, which results from quantitative and qualitative differences in HIV infection and overall response to the PHA and IL-2 of primary lymphocyte populations. […]

[1] = Cytotoxicity in HepG2 2.2.15 cells by MTS uptake assay; conditions: human, HepG2 2.2.15 cells (contain the HBV ayw1 genome), same assay plate
[2] = Cytotoxicity in HCV replicon cells (CytoTox-1 cell proliferation assay); conditions: human, concentration decreasing cell viability by 50%
Protocol: as §1, §2

[3] = Compound cytotoxicity in PBMC assay plates by MTS; conditions: human, PBMCs, listed as of isolate JV-1083
Protocol: as §3, with “centrifugation.” for “centrifugation. After the final wash, cells were enumerated by tryptan blue exclusion and re-suspended at 1×10^6 cells/mL in RPMI 1640 supplemented with 15% Fetal Bovine Serum (FBS), and 2 mM L-glutamine, 4 μg/mL Phytohemagglutinin (PHA, Sigma). The cells were allowed to incubate for 48-72 hours at 37° C.”
Following removal of supernatant samples, compound cytotoxicity was measured by addition of MTS to the plates for determination of cell viability. […]
At assay termination, assay plates were stained with the soluble tetrazolium-based dye MTS (CellTiter 96 Reagent, Promega) to determine cell viability and quantify compound toxicity. […] This allows the rapid quantitative analysis of cell viability and compound cytotoxicity. […]

Structure (SMILES): C[C@H](Cn1cnc2c(N)ncnc21)OCP(=O)(OCOC(=O)C(C)(C)C)Oc1ccccc1 (stereo partly drawn) [((((((R)-1-(6-amino-9H-purin-9-yl)propan-2-yl)oxy)methyl)(phenoxy)phosphoryl)oxy)methyl pivalate fumarate]
- Selectivity Index (HCV replicon; CC50/EC50, HCV replicon cells): 5.98
- Conclusion: activity against HCV (HCV replicon; HCV replicon assay): active
- EC50 (HCV replicon; Hepatitis C virus, concentration inhibiting HCV replicon by 50%, 72 hours, genotype not given): 8.38 µM
- Selectivity Index (HIV-1 isolate 89BZ_167; HIV-1 isolate 89BZ_167, PBMCs): 1333
- EC50 (HIV-1 isolate 89BZ_167; Human immunodeficiency virus 1, PBMC, HIV-1 isolate 89BZ_167, PHA-stimulated fresh human PBMCs, six-seven days): 0.0208 µM
- CC50 at 6 days [1]: > 100 µM
- CC50 at 72 h [2]: 50.1 µM
- CC50 [3]: 27.7 µM

— patent US12090163B2, “Pharmaceutical compositions” (CIPLA LIMITED, priority 2017, dated 2024)
